According to ChEMBL document CHEMBL5380795, “Design, Synthesis, and Bioactivity Investigation of Cyclic Lipopeptide Antibiotics Containing Eight to Nine Amino Acids” (J Med Chem, 2023):
Converted amounts (≈) assume the structure as drawn.

Columns and labels:
[1] = system: Staphylococcus epidermidis; assay: Antibacterial activity against methicillin resistant Staphylococcus epidermidis clinical isolate 19-6 assessed as inhibition of bacterial growth incubated for 18 to 24 hrs by broth microdilution method; type: functional; conditions: time 18-24 hrs
[2] = system: Pseudomonas aeruginosa; assay: Antibacterial activity against carbapenem resistant Pseudomonas aeruginosa clinical isolate 19-3 assessed as inhibition of bacterial growth incubated for 18 to 24 hrs by broth microdilution method; type: functional; conditions: time 18-24 hrs
[3] = system: Escherichia coli; assay: Antibacterial activity against Escherichia coli ATCC BAA-2523 assessed as inhibition of bacterial growth incubated for 18 to 24 hrs by broth microdilution method; type: functional; conditions: time 18-24 hrs
[4] = system: Klebsiella pneumoniae; assay: Antibacterial activity against KPC producing Klebsiella pneumoniae ATCC BAA-1705 assessed as inhibition of bacterial growth incubated for 18 to 24 hrs by broth microdilution method; type: functional; conditions: time 18-24 hrs
[5] = system: Escherichia coli; assay: Antibacterial activity against Escherichia coli NCTC 13353 assessed as inhibition of bacterial growth incubated for 18 to 24 hrs by broth microdilution method; type: functional; conditions: time 18-24 hrs
[6] = system: Staphylococcus aureus; assay: Antibacterial activity against Staphylococcus aureus ATCC 29213 assessed as inhibition of bacterial growth incubated for 18 to 24 hrs by broth microdilution method; type: functional; conditions: time 18-24 hrs
[7] = system: Escherichia coli; assay: Antibacterial activity against Escherichia coli clinical isolate 19-2 assessed as inhibition of bacterial growth incubated for 18 to 24 hrs by broth microdilution method; type: functional; conditions: time 18-24 hrs
[8] = system: Klebsiella pneumoniae; assay: Antibacterial activity against carbapenem resistant Klebsiella pneumoniae clinical isolate 19-17 assessed as inhibition of bacterial growth incubated for 18 to 24 hrs by broth microdilution method; type: functional; conditions: time 18-24 hrs
[9] = system: Pseudomonas aeruginosa; assay: Antibacterial activity against Pseudomonas aeruginosa clinical isolate 19-1 assessed as inhibition of bacterial growth incubated for 18 to 24 hrs by broth microdilution method; type: functional; conditions: time 18-24 hrs
[10] = system: Staphylococcus aureus; assay: Antibacterial activity against methicillin resistant Staphylococcus aureus ATCC 33591 assessed as inhibition of bacterial growth incubated for 18 to 24 hrs by broth microdilution method; type: functional; conditions: time 18-24 hrs
[11] = system: Acinetobacter baumannii; assay: Antibacterial activity against carbapenem resistant Acinetobacter baumannii clinical isolate 19-8 assessed as inhibition of bacterial growth incubated for 18 to 24 hrs by broth microdilution method; type: functional; conditions: time 18-24 hrs
[12] = system: Staphylococcus epidermidis; assay: Antibacterial activity against methicillin resistant Staphylococcus epidermidis clinical isolate 19-5 assessed as inhibition of bacterial growth incubated for 18 to 24 hrs by broth microdilution method; type: functional; conditions: time 18-24 hrs
[13] = system: Pseudomonas aeruginosa; assay: Antibacterial activity against carbapenem resistant Pseudomonas aeruginosa clinical isolate 17-1 assessed as inhibition of bacterial growth incubated for 18 to 24 hrs by broth microdilution method; type: functional; conditions: time 18-24 hrs
[14] = system: Escherichia coli; assay: Antibacterial activity against KPC producing Escherichia coli ATCC BAA-2340 assessed as inhibition of bacterial growth incubated for 18 to 24 hrs by broth microdilution method; type: functional; conditions: time 18-24 hrs
[15] = system: Pseudomonas aeruginosa; assay: Antibacterial activity against Pseudomonas aeruginosa ATCC 27853 assessed as inhibition of bacterial growth incubated for 18 to 24 hrs by broth microdilution method; type: functional; conditions: time 18-24 hrs
[16] = Cytotoxicity against human HK-2 cells assessed as inhibition of cell growth incubated for 72 hrs by CCK-8 assay; type: toxicity, cell-based
[17] = system: Acinetobacter baumannii; assay: Antibacterial activity against oxacillinase-27 producing Acinetobacter baumannii NCTC 13304 assessed as inhibition of bacterial growth incubated for 18 to 24 hrs by broth microdilution method; type: functional; conditions: time 18-24 hrs
[18] = Selectivity index, ratio of IC50 for cytotoxicity against human HK-2 cells to MIC for antibacterial activity against Escherichia coli ATCC BAA-2523; type: toxicity, cell-based
[19] = system: Klebsiella pneumoniae; assay: Antibacterial activity against carbapenem resistant Klebsiella pneumoniae clinical isolate 19-15 assessed as inhibition of bacterial growth incubated for 18 to 24 hrs by broth microdilution method; type: functional; conditions: time 18-24 hrs

Compound	MIC [1]	MIC [2]	MIC [3]	MIC [4]	MIC [5]	MIC [6]	MIC [7]	MIC [8]	MIC [9]	MIC [10]	MIC [11]	MIC [12]	MIC [13]	MIC [14]	MIC [15]	IC50 at 72 h [16]	MIC [17]	selectivity ratio [18]	MIC [19]
CCCCCCCCCC(=O)N[C@H](CCN)C(=O)N[C@H]1CCNC(=O)[C@H]([C@@H](C)O)NC(=O)[C@H](CCN)NC(=O)[C@H](CCN)NC(=O)[C@H](CC(C)C)NC(=O)[C@@H](CC(C)C)NC(=O)[C@H](CCCN)NC1=O	32 µg/mL (≈ 32.1 µM)	> 64 µg/mL	> 64 µg/mL	> 64 µg/mL	> 64 µg/mL	> 64 µg/mL	> 64 µg/mL	> 64 µg/mL	> 64 µg/mL	> 64 µg/mL	> 64 µg/mL	4 µg/mL (≈ 4.01 µM)	> 64 µg/mL	> 64 µg/mL	> 64 µg/mL	277 µg/mL (≈ 278 µM)	> 64 µg/mL	< 4.3	> 64 µg/mL
CCCCCCC[C@@H](O)CC(=O)N[C@H](CCN)C(=O)N[C@H]1CCNC(=O)[C@H]([C@@H](C)O)NC(=O)[C@H](CCN)NC(=O)[C@H](CCN)NC(=O)[C@H](CC(C)C)NC(=O)[C@@H](CC(C)C)NC(=O)[C@H](CCN)NC1=O	64 µg/mL (≈ 64.1 µM)	1 µg/mL (≈ 1 µM)	4 µg/mL (≈ 4.01 µM)	2 µg/mL (≈ 2 µM)	16 µg/mL (≈ 16 µM)	> 64 µg/mL	8 µg/mL (≈ 8.01 µM)	8 µg/mL (≈ 8.01 µM)	0.5 µg/mL (≈ 0.501 µM)	> 64 µg/mL	64 µg/mL (≈ 64.1 µM)	16 µg/mL (≈ 16 µM)	0.5 µg/mL (≈ 0.501 µM)	8 µg/mL (≈ 8.01 µM)	0.5 µg/mL (≈ 0.501 µM)	206 µg/mL (≈ 206 µM)	64 µg/mL (≈ 64.1 µM)	51.5	16 µg/mL (≈ 16 µM)
CCCCCCCCCC(=O)N[C@H](CCN)C(=O)N[C@H]1CCNC(=O)[C@H]([C@@H](C)O)NC(=O)[C@H](CCN)NC(=O)[C@H](CCN)NC(=O)[C@H](CC(C)C)NC(=O)[C@@H](Cc2ccc(N)cc2)NC(=O)[C@H](CCN)NC1=O	32 µg/mL (≈ 31 µM)	> 64 µg/mL	64 µg/mL (≈ 62.1 µM)	> 64 µg/mL	> 64 µg/mL	> 64 µg/mL	64 µg/mL (≈ 62.1 µM)	> 64 µg/mL	> 64 µg/mL	> 64 µg/mL	> 64 µg/mL	16 µg/mL (≈ 15.5 µM)	> 64 µg/mL	64 µg/mL (≈ 62.1 µM)	> 64 µg/mL	228 µg/mL (≈ 221 µM)	> 64 µg/mL	3.6	> 64 µg/mL
CCCCCCCCCC(=O)N[C@H](CCN)C(=O)N[C@H]1CCNC(=O)[C@H](CO)NC(=O)[C@H](CCN)NC(=O)[C@H](CCN)NC(=O)[C@H](Cc2ccccc2)NC(=O)[C@@H](CC(C)C)NC(=O)[C@H](CCN)NC1=O	2 µg/mL (≈ 2 µM)	16 µg/mL (≈ 16 µM)	16 µg/mL (≈ 16 µM)	8 µg/mL (≈ 7.98 µM)	32 µg/mL (≈ 31.9 µM)	64 µg/mL (≈ 63.9 µM)	16 µg/mL (≈ 16 µM)	64 µg/mL (≈ 63.9 µM)	16 µg/mL (≈ 16 µM)	> 64 µg/mL	> 64 µg/mL	4 µg/mL (≈ 3.99 µM)	64 µg/mL (≈ 63.9 µM)	16 µg/mL (≈ 16 µM)	64 µg/mL (≈ 63.9 µM)	146 µg/mL (≈ 145 µM)	> 64 µg/mL	9.1	32 µg/mL (≈ 31.9 µM)
CCCCCCC[C@H](O)CC(=O)N[C@H](CCN)C(=O)N[C@H]1CCNC(=O)[C@H](CC(C)C)NC(=O)[C@H](CCN)NC(=O)[C@H](CCN)NC(=O)[C@H](CC(C)C)NC(=O)[C@@H](CC(C)C)NC(=O)[C@H](CCN)NC1=O	16 µg/mL (≈ 15.8 µM)	4 µg/mL (≈ 3.96 µM)	4 µg/mL (≈ 3.96 µM)	4 µg/mL (≈ 3.96 µM)	8 µg/mL (≈ 7.92 µM)	> 64 µg/mL	8 µg/mL (≈ 7.92 µM)	8 µg/mL (≈ 7.92 µM)	2 µg/mL (≈ 1.98 µM)	> 64 µg/mL	2 µg/mL (≈ 1.98 µM)	2 µg/mL (≈ 1.98 µM)	2 µg/mL (≈ 1.98 µM)	2 µg/mL (≈ 1.98 µM)	1 µg/mL (≈ 0.99 µM)	77.6 µg/mL (≈ 76.8 µM)	1 µg/mL (≈ 0.99 µM)	19.4	8 µg/mL (≈ 7.92 µM)
CCCCCCCCCC(=O)N[C@@H](C(=O)N[C@H]1CCNC(=O)[C@H]([C@@H](C)O)NC(=O)[C@H](CCN)NC(=O)[C@H](CCN)NC(=O)[C@H](CC(C)C)NC(=O)[C@@H](CC(C)C)NC(=O)[C@H](CCN)NC1=O)[C@H](C)O	64 µg/mL (≈ 65.1 µM)	32 µg/mL (≈ 32.5 µM)	64 µg/mL (≈ 65.1 µM)	32 µg/mL (≈ 32.5 µM)	64 µg/mL (≈ 65.1 µM)	> 64 µg/mL	32 µg/mL (≈ 32.5 µM)	64 µg/mL (≈ 65.1 µM)	16 µg/mL (≈ 16.3 µM)	> 64 µg/mL	> 64 µg/mL	16 µg/mL (≈ 16.3 µM)	32 µg/mL (≈ 32.5 µM)	64 µg/mL (≈ 65.1 µM)	8 µg/mL (≈ 8.14 µM)	240 µg/mL (≈ 244 µM)	64 µg/mL (≈ 65.1 µM)	3.8	64 µg/mL (≈ 65.1 µM)
CC[C@H](C)CCCCC(=O)N[C@H](CCN)C(=O)N[C@H]1CCNC(=O)[C@H](CC(C)C)NC(=O)[C@H](CCN)NC(=O)[C@H](CCN)NC(=O)[C@H](CC(C)C)NC(=O)[C@@H](CC(C)C)NC(=O)[C@H](CCN)NC1=O	16 µg/mL (≈ 16.3 µM)	2 µg/mL (≈ 2.04 µM)	8 µg/mL (≈ 8.16 µM)	1 µg/mL (≈ 1.02 µM)	16 µg/mL (≈ 16.3 µM)	> 64 µg/mL	32 µg/mL (≈ 32.6 µM)	8 µg/mL (≈ 8.16 µM)	2 µg/mL (≈ 2.04 µM)	> 64 µg/mL	8 µg/mL (≈ 8.16 µM)	4 µg/mL (≈ 4.08 µM)	1 µg/mL (≈ 1.02 µM)	1 µg/mL (≈ 1.02 µM)	1 µg/mL (≈ 1.02 µM)	86.9 µg/mL (≈ 88.6 µM)	8 µg/mL (≈ 8.16 µM)	10.9	8 µg/mL (≈ 8.16 µM)
CCCCCCCCC(=O)N[C@H](CCN)C(=O)N[C@H]1CCNC(=O)[C@H](CC(C)C)NC(=O)[C@H](CCN)NC(=O)[C@H](CCN)NC(=O)[C@H](CC(C)C)NC(=O)[C@@H](CC(C)C)NC(=O)[C@H](CCN)NC1=O	16 µg/mL (≈ 16.3 µM)	4 µg/mL (≈ 4.08 µM)	16 µg/mL (≈ 16.3 µM)	2 µg/mL (≈ 2.04 µM)	16 µg/mL (≈ 16.3 µM)	> 64 µg/mL	32 µg/mL (≈ 32.6 µM)	16 µg/mL (≈ 16.3 µM)	4 µg/mL (≈ 4.08 µM)	> 64 µg/mL	8 µg/mL (≈ 8.16 µM)	4 µg/mL (≈ 4.08 µM)	2 µg/mL (≈ 2.04 µM)	2 µg/mL (≈ 2.04 µM)	1 µg/mL (≈ 1.02 µM)	77.4 µg/mL (≈ 79 µM)	8 µg/mL (≈ 8.16 µM)	4.8	16 µg/mL (≈ 16.3 µM)
CCCCCCCCCC(=O)N[C@H](CCN)C(=O)N[C@H]1CCNC(=O)[C@H]([C@@H](C)O)NC(=O)[C@H](CCN)NC(=O)[C@H](CCN)NC(=O)[C@H](CC(C)C)NC(=O)[C@@H](Cc2ccc(Cl)cc2)NC(=O)[C@H](CCN)NC1=O	4 µg/mL (≈ 3.81 µM)	0.5 µg/mL (≈ 0.476 µM)	1 µg/mL (≈ 0.952 µM)	0.5 µg/mL (≈ 0.476 µM)	2 µg/mL (≈ 1.9 µM)	8 µg/mL (≈ 7.61 µM)	1 µg/mL (≈ 0.952 µM)	2 µg/mL (≈ 1.9 µM)	0.5 µg/mL (≈ 0.476 µM)	16 µg/mL (≈ 15.2 µM)	32 µg/mL (≈ 30.5 µM)	0.5 µg/mL (≈ 0.476 µM)	1 µg/mL (≈ 0.952 µM)	1 µg/mL (≈ 0.952 µM)	0.5 µg/mL (≈ 0.476 µM)	48.1 µg/mL (≈ 45.8 µM)	8 µg/mL (≈ 7.61 µM)	48.1	2 µg/mL (≈ 1.9 µM)
CCCCCCCCCC(=O)N[C@H](CCN)C(=O)N[C@H]1CCNC(=O)[C@H](CC(C)C)NC(=O)[C@H](CCN)NC(=O)[C@H](CCN)NC(=O)[C@H](Cc2ccccc2)NC(=O)[C@@H](Cc2ccccc2)NC(=O)[C@H](CCN)NC1=O	1 µg/mL (≈ 0.941 µM)	4 µg/mL (≈ 3.77 µM)	8 µg/mL (≈ 7.53 µM)	16 µg/mL (≈ 15.1 µM)	8 µg/mL (≈ 7.53 µM)	8 µg/mL (≈ 7.53 µM)	8 µg/mL (≈ 7.53 µM)	16 µg/mL (≈ 15.1 µM)	4 µg/mL (≈ 3.77 µM)	32 µg/mL (≈ 30.1 µM)	16 µg/mL (≈ 15.1 µM)	1 µg/mL (≈ 0.941 µM)	8 µg/mL (≈ 7.53 µM)	2 µg/mL (≈ 1.88 µM)	8 µg/mL (≈ 7.53 µM)	32.2 µg/mL (≈ 30.3 µM)	16 µg/mL (≈ 15.1 µM)	4	8 µg/mL (≈ 7.53 µM)
